Here are results for 13 molecules from US6667312B2, “Thioether substituted imidazoquinolines” (3M Innovative Properties Company, priority 2000, dated 2003).

In data set [1] the test system is interferon (α). Nature of the data set: Cytokine Induction in Human Cells: interferon. The class given is cell-based. As to conditions: human PBMC, 18 to 24 hours, tested 30-0.014 μM, interferon (α) by ELISA; read-out: Lowest Effective Concentration (μM) Interferon. The source says: (§1) An in vitro human blood cell system is used to assess cytokine induction. Activity is based on the measurement of interferon and tumor necrosis factor (α) (IFN and TNF, respectively) secreted into culture media as described by Testerman et. al. In “Cytokine Induction by the Immunomodulators Imiquimod and S-27609”, Journal of Leukocyte Biology, 58, 365-372 (September, 1995).
(§2) Whole blood from healthy human donors is collected by venipuncture into EDTA vacutainer tubes. Peripheral blood mononuclear cells (PBMC) are separated from whole blood by density gradient centrifugation using Histopaque®-1077. Blood is diluted 1:1 with Dulbecco's Phosphate Buffered Saline (DPBS) or Hank's Balanced Salts Solution (HBSS). The PBMC layer is collected and washed twice with DPBS or HBSS and resuspended at 4×10^6 cells/mL in RPMI complete. The PBMC suspension is added to 48 well flat bottom sterile tissue culture plates (Costar, Cambridge, Mass. or Becton Dickinson Labware, Lincoln Park, N.J.) containing an equal volume of RPMI complete media containing test compound.
(§3) The compounds are solubilized in dimethyl sulfoxide (DMSO). The DMSO concentration should not exceed a final concentration of 1% for addition to the culture wells. The compounds are generally tested at concentrations ranging from 30-0.014 μM.
(§4) The solution of test compound is added at 60 μM to the first well containing RPMI complete and serial 3 fold dilutions are made in the wells. The PBMC suspension is then added to the wells in an equal volume, bringing the test compound concentrations to the desired range (30-0.014 μM). The final concentration of PBMC suspension is 2×10^6 cells/mL. The plates are covered with sterile plastic lids, mixed gently and then incubated for 18 to 24 hours at 37° C. in a 5% carbon dioxide atmosphere.
(§5) Following incubation the plates are centrifuged for 10 minutes at 1000 rpm (˜200× g) at 4° C. The cell-free culture supernatant is removed with a sterile polypropylene pipet and transferred to sterile polypropylene tubes. Samples are maintained at −30 to −70° C. until analysis. The samples are analyzed for interferon (α) by ELISA and for tumor necrosis factor (α) by ELISA or IGEN Assay
Interferon (α) concentration is determined by ELISA using a Human Multi-Species kit from PBL Biomedical Laboratories, New Brunswick, N.J. Results are expressed in pg/mL.
(§6) The table below lists the lowest concentration found to induce interferon and the lowest concentration found to induce tumor necrosis factor for each compound.
(ELISA stands for enzyme-linked immunosorbent assay.)

Data set [2] has as its system tumor necrosis factor (α). Nature of the data set: Cytokine Induction in Human Cells: tumor necrosis factor. Format: cell-based. Details: key to Lowest Effective Concentration (μM) Tumor Necrosis Factor: A “*” indicates that no induction was seen at any of the tested concentrations. The note with it: human PBMC, 18 to 24 hours, tested 30-0.014 μM, TNF by ELISA or IGEN assay; for minimal effective concentration: read-out: Lowest Effective Concentration (μM) Tumor Necrosis Factor.
Excerpt: as §1, §2, §3, §4, §5
Tumor necrosis factor (α) (TNF) concentration is determined using ELISA kits available from Biosource International, Camarillo, Calif. Alternately, the TNF concentration can be determined by Origen® M-Series Immunoassay and read on an IGEN M-8 analyzer from IGEN International, Gaithersburg, Md. The immunoassay uses a human TNF capture and detection antibody pair from Biosource International, Camarillo, Calif. Results are expressed in pg/mL.
as §6

With `CCCCc1nc2c(N)nc3ccccc3c2n1CCCCSc1ccccc1` [Example 1, 2-butyl-1-[4-(phenylthio)butyl]-1H-imidazo[4,5-c]quinolin-4-amine], the melting point (commonly the temperature of the solid-liquid transition) is 118 to 120 °C. Also, the minimal effective concentration in data set [1] came out at 0.12 µM. The minimal effective concentration in data set [2] is 0.12 µM.
Turning to `CCCCc1nc2c(N)nc3ccccc3c2n1CCCCS(=O)(=O)c1ccccc1` [Example 3, 2-butyl-1-[4-(phenylsulfonyl)butyl]-1H-imidazo[4,5-c]quinolin-4-amine], the melting point lay in the range of 179 to 180 °C. In data set [1], the minimal effective concentration turned out to be 0.04 µM. The minimal effective concentration in data set [2] was 0.12 µM.
Take `CCCCc1nc2c(N)nc3ccccc3c2n1CCCCSC` [Example 4, 2-butyl-1-[4-(methylthio)butyl]-1H-imidazo[4,5-c]quinolin-4-amine]: the melting point fell in the range of 127 to 130 °C. Further, the minimal effective concentration in data set [1] was 0.01 µM. Also, in data set [2], the minimal effective concentration was 0.01 µM.
For the molecule `CCCCc1nc2c(N)nc3ccccc3c2n1CCCCS(C)(=O)=O` [Example 5, 2-butyl-1-[4-(methylsulfonyl)butyl]-1H-imidazo[4,5-c]quinolin-4-amine], the melting point lay in the range of 164 to 165 °C. Moreover, in data set [1], the minimal effective concentration came out at 0.01 µM. Besides, the minimal effective concentration in data set [2] turned out to be 0.04 µM.
Turning to `Nc1nc2ccccc2c2c1ncn2CCSc1ccccc1` [Example 6, 1-[2-(phenylthio)ethyl]-1H-imidazo[4,5-c]quinolin-4-amine], the melting point was in the range of 233 to 235 °C. The minimal effective concentration in data set [1] is 3.33 µM. Besides, in data set [2], the minimal effective concentration was determined as 10 µM.
Consider `Nc1nc2ccccc2c2c1ncn2CCCCS(=O)(=O)c1ccccc1` [Example 7, 1-[4-(phenylsulfonyl)butyl]-1H-imidazo[4,5-c]quinolin-4-amine], for which the melting point lay in the range of 175 to 177 °C. Moreover, the minimal effective concentration in data set [1] is 3.33 µM. Besides, the minimal effective concentration in data set [2] amounted to 10 µM.
`CS(=O)(=O)CCCCn1cnc2c(N)nc3ccccc3c21` [Example 8, 1-[4-(methylsulfonyl)butyl]-1H-imidazo[4,5-c]quinolin-4-amine] displayed a melting point of 203 to 204 °C. Further, the minimal effective concentration in data set [1] is 10 µM. For the same molecule, the “Lowest Effective Concentration (μM) Tumor Necrosis Factor” value in data set [2] was “*”.
The molecule `Nc1nc2ccccc2c2c1ncn2CCCCSc1ccccc1` [Example 9, 1-[4-(phenylthio)butyl]-1H-imidazo[4,5-c]quinolin-4-amine] registered a melting point of 158 to 160 °C. Moreover, the minimal effective concentration in data set [1] was found to be 3.33 µM. The minimal effective concentration in data set [2] was found to be 3.33 µM.
Consider `CSCCCCn1cnc2c(N)nc3ccccc3c21` [Example 10, 1-[4-(methylthio)butyl]-1H-imidazo[4,5-c]quinolin-4-amine], for which the melting point fell in the range of 163 to 164 °C. Further, the minimal effective concentration in data set [1] was determined as 1.11 µM. Also, in data set [2], the minimal effective concentration is 1.11 µM.
In turn, `Cc1nc2c(N)nc3ccccc3c2n1CCCCCS(C)(=O)=O` [Example 12, 2-methyl-1-[5-(methylsulfonyl)pentyl]-1H-imidazo[4,5-c]quinolin-4-amine] yielded a melting point of 235 to 240 °C. For the same molecule, in data set [1], the minimal effective concentration was determined as 0.12 µM. In addition, the minimal effective concentration in data set [2] stood at 10 µM.
For `Cc1nc2c(N)nc3c(c2n1CCCCS(=O)(=O)c1ccc(F)cc1)CCCC3` [Example 77, 2-methyl-1-{4-[(4-fluorophenyl)sulfonyl]butyl}-6,7,8,9-tetrahydro-1H-imidazo[4,5-c]quinolin-4-amine], the melting point was 159 to 162 °C.
As to `Cc1nc2c(N)nc3c(c2n1CCCCS(=O)(=O)C(C)(C)C)CCCC3` [Example 78, 2-methyl-1-{4-[(1,1-dimethylethyl)sulfonyl]butyl}-6,7,8,9-tetrahydro-1H-imidazo[4,5-c]quinolin-4-amine], the melting point was in the range of 208 to 210 °C.
`CCOCc1nc2c(N)nc3c(c2n1CCCCS(C)(=O)=O)CCCC3` [Example 79, 2-ethoxymethyl-1-(4-methanesulfonyl-butyl)-6,7,8,9-tetrahydro-1H-imidazo[4,5-c]quinolin-4-amine] gave a melting point of 170 to 171 °C.
